Test [1] has as its target T1, Mitogen-activated protein kinase 14 (Homo sapiens, UniProt Q16539). Nature of the test: Activation of human recombinant full length GST-tagged MAPK14 expressed in Escherichia coli assessed as increase in MAPK14 phosphorylation at 10 to 10000 nM in presence of 500 uM of ATP by direct Z-LITE assay.
For test [2], the target named is T1, Mitogen-activated protein kinase 14. Nature of the test: Activation of human recombinant full length GST-tagged MAPK14 expressed in Escherichia coli assessed as increase in MAPK14 phosphorylation at 10 uM in presence of 500 uM of ATP by direct Z-LITE assay relative to control.
Test [3] shares this target. Nature of the test: Inhibition of human recombinant full length GST-tagged MAPK14 phosphorylation expressed in Escherichia coli in presence of 100 uM of ATP by direct Z-LITE assay.
Test [4] shares this target. Nature of the test: Inhibition of human recombinant full length GST-tagged MAPK14 phosphorylation expressed in Escherichia coli in presence of 500 uM of ATP by direct Z-LITE assay.

Calls of active or inactive are those of the source. The calls are words filed in the database; no cut-off is given here.

The values below come from ChEMBL document CHEMBL3864139, “Phenylindenone isomers as divergent modulators of p38α MAP kinase” (Bioorg Med Chem Lett, 2016).

T1 sequence (Q16539 whole entry): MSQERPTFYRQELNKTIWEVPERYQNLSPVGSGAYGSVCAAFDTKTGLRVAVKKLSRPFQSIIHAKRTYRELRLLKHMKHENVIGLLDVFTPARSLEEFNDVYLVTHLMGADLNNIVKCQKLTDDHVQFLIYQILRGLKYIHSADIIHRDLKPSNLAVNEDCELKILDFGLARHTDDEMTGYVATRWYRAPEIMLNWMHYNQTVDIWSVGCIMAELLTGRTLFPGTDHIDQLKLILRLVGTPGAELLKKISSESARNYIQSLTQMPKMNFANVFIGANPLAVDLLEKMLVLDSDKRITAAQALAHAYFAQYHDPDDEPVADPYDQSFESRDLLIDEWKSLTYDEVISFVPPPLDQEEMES

For the compound `O=C1C(c2ccncc2)=C(c2ccc(F)cc2)c2ccccc21`, in test [1], the result was Active. For the same compound, the Activity in test [2] was 40 to 50%.
A word on the IC50: it is the concentration that gives 50% inhibition. On to `O=C1C(c2ccc(F)cc2)=C(c2ccncc2)c2ccccc21`, for which the results for the IC50 in test [3] and in test [4] were 899 nM and 1350 nM, respectively.
